Data reported in article PMC3206016, “Putting into Practice Domain-Linear Motif Interaction Predictions for Exploration of Protein Networks” (PLoS ONE, 2011).
Where two headings read alike, the source gives them in different places. Ends that are not written are not given here. Peptide text beside a SMILES is read from it. * marks the point of attachment. Biotin = O=C1N[C@H]2[C@H](CS[C@H]2CCCCC(=O)*)N1

Columns and labels:
Assay in all cases: SPR binding of MBP-PDZ analyte to immobilised biotinylated peptides
[1] = biological target: T1, SCRIB-34/4 tandem PDZ construct (Homo sapiens, UniProt Q14160); conditions: SPR Biacore 2000, 25 C, steady state, 1:1 binding isotherm, MBP-PDZ 0-30 µM, to be considered with caution
T1 construct: residues 997–1093, 1097–1193 and 997–1193 of human SCRIB (Uniprot acc.: Q14160-1); made in house; host or cells: E. coli BL21 DE3
T1 sequence (Q14160 997-1193 isoform Q14160-1): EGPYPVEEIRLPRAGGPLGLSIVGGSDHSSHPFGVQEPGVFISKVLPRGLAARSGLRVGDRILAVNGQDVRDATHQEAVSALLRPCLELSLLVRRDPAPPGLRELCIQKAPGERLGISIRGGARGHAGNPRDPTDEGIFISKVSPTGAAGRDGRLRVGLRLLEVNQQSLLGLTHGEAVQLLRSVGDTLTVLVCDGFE
Experimental: (§1) We opted for the surface plasmon resonance (SPR) method to measure these 190 (19 proteins×2 peptide versions×5 PDZ constructs) interactions. In SPR various concentrations of “analytes” (here, PDZ domains fused to the Maltose Binding Protein (MBP)) flow over surfaces presenting attached “ligands” (here, biotinylated peptides). The amount of analyte interacting with the ligand is measured and quantified in response units (RU). The intensity of this signal is proportional to the binding strength of the assayed interaction (Figure 5A). K [drawing 13] were obtained using a 1∶1 interaction model. However, these calculated K [drawing 14] were rather inaccurate especially for weak interactions. Therefore, we preferred to rank the binding strengths of the 190 interactions using normalised RU signals at equilibrium ( [drawing 15] ) rather than K [drawing 16] (see Methods for details). These normalised [drawing 17] values were plotted in form of a heat map (Figure 5B).
(§2) The cDNA encoding residues 448–572 and 613–752 of mouse MAGI-1 (UniProt acc.: Q6RHR9-1) encoding for MAGI1-2/6 (100% identical to human MAGI1-2/6) and MAGI1-3/6 (99% identical to human MAGI1-3/6) PDZ domains, respectively, were inserted into the NcoI/KpnI sites of the pETM-41 expression vector (EMBL) containing a 6×His-MBP tag followed by a TEV protease cleavage site. A similar cloning strategy was adopted for cDNA bearing residues 997–1093, 1097–1193 and 997–1193 of human SCRIB (Uniprot acc.: Q14160-1) encoding for SCRIB-3/4, SCRIB-4/4 PDZ domains and SCRIB-34/4 tandem PDZ construct, respectively.
(§3) Data were collected on a Biacore 2000 instrument (Biacore AB/GE Healthcare Bio-Sciences Corp., Piscataway, NJ, USA) at 25 [drawing 74] C. SPR experiments (ligand immobilisation and binding measurements) have been performed as described in Fournane et al.. Briefly, biotinylated peptides (instead of GST-fused recombinant peptides) were immobilised on CM5 sensorchips on which Neutravidin was previously attached. The MBP-PDZ domain analyte was injected at 8 to 10 different concentrations ranging from 0 up to 30 [drawing 75] M. Data were processed using the BiaEvaluation 3.2 software (Biacore AB/GE Healthcare Bio-Sciences Corp.) using “double referencing” [78] in which sensorgrams were corrected for buffer effects and bulk refractive index changes.
(§4) The steady-state binding signal ( [drawing 76] ) was derived by averaging the signals in a five second window at equilibrium. Steady-state analysis was performed by fitting the average signal [drawing 77] as a function of total MBP-PDZ concentrations, assuming a simple 1∶1 interaction binding isotherm model. […] Reasons for this inaccuracy are likely to be the following: 1. As previously described, several repetitions of all the measurements are required to determine accurate K [drawing 81] . In our case, such repetitions were not achievable in reasonable time due to the large amount of interactions measured in this study. 2. The highest injected analyte concentration restricts the maximal K [drawing 82] (weakest interaction) that can be accurately obtained. 3. A K [drawing 83] is estimated based on a mathematical extrapolation of observed [drawing 84] signals leading to additional uncertainty. Based on these reasons, we considered the calculated K [drawing 85] not as accurate enough to be used for absolute binding strength comparison in this study. We rather performed a relative analysis of binding strengths using directly [drawing 86] signals which are not biased by any mathematical assumption. We focussed on [drawing 87] signals obtained at 10 [drawing 88] M MBP-PDZ concentration, which have been systematically measured in duplicate. The [drawing 89] signal is directly proportional to the molecular weight of the analyte and the amount of immobilised ligand. Therefore, the [drawing 90] signals were normalised taking those into account before being used for binding strength comparison. […]

SCRIB-4/4 PDZ domain = biological target: T2, SCRIB-4/4 PDZ domain (Homo sapiens, UniProt Q14160); conditions: SPR Biacore 2000, 25 C, steady state, 1:1 binding isotherm, MBP-PDZ 0-30 µM; to be considered with caution; read-out: tentative KD
T2 construct: residues 997–1093, 1097–1193 and 997–1193 of human SCRIB (Uniprot acc.: Q14160-1); made in house; host or cells: E. coli BL21 DE3
T2 sequence (Q14160 1097-1193 isoform Q14160-1): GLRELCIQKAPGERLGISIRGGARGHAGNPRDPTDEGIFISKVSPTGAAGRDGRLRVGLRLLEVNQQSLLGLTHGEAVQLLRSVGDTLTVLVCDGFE
Experimental: as §1, §2, §3, §4

SCRIB-3/4 PDZ domain = biological target: T3, SCRIB-3/4 PDZ domain (Homo sapiens, UniProt Q14160); conditions: SPR Biacore 2000, 25 C, steady state, 1:1 binding isotherm, MBP-PDZ 0-30 µM, to be considered with caution
T3 construct: cDNA bearing residues 997–1093, 1097–1193 and 997–1193 of human SCRIB (Uniprot acc.: Q14160-1); made in house; host or cells: E. coli BL21 DE3
T3 sequence (Q14160 997-1093 isoform Q14160-1): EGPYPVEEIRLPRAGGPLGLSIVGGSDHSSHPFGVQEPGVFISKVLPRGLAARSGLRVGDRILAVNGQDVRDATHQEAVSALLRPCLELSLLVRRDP
Experimental: as §1, §2, §3, §4

MAGI1-3/6 PDZ domain = biological target: T4, MAGI1-3/6 PDZ domain (Mus musculus, UniProt Q6RHR9); conditions: SPR Biacore 2000, 25 C, steady state, 1:1 binding isotherm, MBP-PDZ 0-30 µM; to be considered with caution; read-out: tentative KD
T4 construct: The cDNA encoding residues 448–572 and 613–752 of mouse MAGI-1 (UniProt acc.: Q6RHR9-1); made in house; host or cells: E. coli BL21 DE3
Experimental: as §1, §2, §3, §4

MAGI1-2/6 PDZ domain = biological target: T5, MAGI1-2/6 PDZ domain (Mus musculus, UniProt Q6RHR9)
T5 construct: The cDNA encoding residues 448–572 and 613–752 of mouse MAGI-1 (UniProt acc.: Q6RHR9-1) encoding for MAGI1-2/6; made in house; host or cells: E. coli BL21 DE3
Experimental: as §1, §2, §3, §4

T5 sequence (Q6RHR9 448-572): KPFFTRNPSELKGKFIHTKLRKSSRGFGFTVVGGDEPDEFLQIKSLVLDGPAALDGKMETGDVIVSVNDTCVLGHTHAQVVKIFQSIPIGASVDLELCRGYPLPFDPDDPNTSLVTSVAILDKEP
T4 sequence (Q6RHR9 613-752): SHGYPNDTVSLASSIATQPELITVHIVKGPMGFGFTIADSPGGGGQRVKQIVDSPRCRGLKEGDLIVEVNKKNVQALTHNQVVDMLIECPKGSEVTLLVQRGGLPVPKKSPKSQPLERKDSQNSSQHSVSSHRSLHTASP

Compound	Kd ([1]; read-out: tentative KD) [µM]	Kd (SCRIB-4/4 PDZ domain) [µM]	further results
SVWLRKETRV [CYSLTR2_10]	15	202	–
GGWVEKETYY [ATP1A1_10]	–	–	Kd (SCRIB-3/4 PDZ domain; read-out: tentative KD): 88 µM
SGGKRKETLV [NET1_10]	–	–	Kd (MAGI1-3/6 PDZ domain): 37 µM; Kd (MAGI1-2/6 PDZ domain; Table S3, column this study, SPR, read-out: this study (Kd)): 3 µM
KPGKGSETVV [FZD4_10]	–	–	Kd (MAGI1-2/6 PDZ domain; SPR Biacore 2000, 25 C, steady state, 1:1 binding isotherm, MBP-PDZ 0-30 µM, to be considered with caution, read-out: tentative KD): 23 µM
CC(C)C[C@H](NC(=O)[C@@H](NC(=O)[C@H](CCC(=O)O)NC(=O)[C@@H]1CCCN1C(=O)CNC(=O)[C@H](C)NC(=O)CNC(=O)[C@H](CO)NC(=O)CNC(=O)CCCC[C@@H]1SC[C@@H]2NC(=O)N[C@@H]21)[C@@H](C)O)C(=O)N[C@H](C(=O)O)C(C)C [ARHGAP6_05] (Biotin-GSGAGPETLV-OH)	–	104	–
CC(C)[C@H](NC(=O)[C@@H](NC(=O)[C@@H](NC(=O)[C@H](CCC(=O)O)NC(=O)[C@H](CCCCN)NC(=O)CNC(=O)[C@H](C)NC(=O)CNC(=O)[C@H](CO)NC(=O)CNC(=O)CCCC[C@@H]1SC[C@@H]2NC(=O)N[C@@H]21)[C@@H](C)O)C(C)C)C(=O)O [MARCH3_05] (Biotin-GSGAGKETVV-OH)	7	–	–
CC[C@H](C)[C@H](NC(=O)CNC(=O)[C@H](C)NC(=O)CNC(=O)[C@H](CO)NC(=O)CNC(=O)CCCC[C@@H]1SC[C@@H]2NC(=O)N[C@@H]21)C(=O)N[C@@H](C)C(=O)N[C@H](C(=O)N[C@@H](CCC(=O)O)C(=O)N[C@H](C(=O)O)C(C)C)[C@@H](C)O [DLL1_05] (Biotin-GSGAGIATEV-OH)	–	893	–
KDECVIATEV [DLL1_10]	–	88	–
CC(C)[C@H](NC(=O)[C@H](CCCNC(=N)N)NC(=O)[C@@H](NC(=O)[C@H](CCC(=O)O)NC(=O)[C@H](CCCCN)NC(=O)CNC(=O)[C@H](C)NC(=O)CNC(=O)[C@H](CO)NC(=O)CNC(=O)CCCC[C@@H]1SC[C@@H]2NC(=O)N[C@@H]21)[C@@H](C)O)C(=O)O [CYSLTR2_05] (Biotin-GSGAGKETRV-OH)	10	123	–
CC(C)C[C@H](NC(=O)[C@@H](NC(=O)[C@H](CCC(=O)O)NC(=O)[C@H](CCCCN)NC(=O)CNC(=O)[C@H](C)NC(=O)CNC(=O)[C@H](CO)NC(=O)CNC(=O)CCCC[C@@H]1SC[C@@H]2NC(=O)N[C@@H]21)[C@@H](C)O)C(=O)N[C@H](C(=O)O)C(C)C [NET1_05] (Biotin-GSGAGKETLV-OH)	15	–	Kd (MAGI1-3/6 PDZ domain): 23 µM
QDEKVKESYV [ABC1_10]	8	–	–
CC(C)C[C@H](NC(=O)[C@H](CCC(N)=O)NC(=O)[C@@H](NC(=O)[C@H](CCC(=O)O)NC(=O)[C@H](CCCNC(=N)N)NC(=O)CNC(=O)[C@H](C)NC(=O)CNC(=O)[C@H](CO)NC(=O)CNC(=O)CCCC[C@@H]1SC[C@@H]2NC(=O)N[C@@H]21)[C@@H](C)O)C(=O)O [16E6_05] (Biotin-GSGAGRETQL-OH)	–	–	Kd ([1]; tentative KD): 1 µM; Kd (SCRIB-3/4 PDZ domain; tentative KD): 12 µM; Kd (MAGI1-2/6 PDZ domain; tentative KD, SPR Biacore 2000, 25 C, steady state, 1:1 binding isotherm, MBP-PDZ 0-30 µM, to be considered with caution): 7 µM
GSGAGSETSV [VANG2_05]	4	–	–
